Publication PMC10301845, “Characterization of a Novel M4 PAM PET Radioligand [11C]PF06885190 in Nonhuman Primates (NHP)” (Molecules, 2023)

System: M4
Experiment: PET measurements of brain distribution in NHP (SUV, VT by 1-TC and Logan)
Assay type: in vivo, cynomolgus monkey (Macaca fascicularis)
Set-up: VT 1-TC Baseline: unit not given here
Conditions: for VT 1-TC %Decrease / VT Logan %Decrease: baseline vs pretreatment with CVL-231; for VT 1-TC Pretreatment / VT Logan Pretreatment: pretreatment with CVL-231
Protocol: Two male cynomolgus monkeys (Macaca fascicularis, NHP) M1 and M2, with body weight of 7.8 kg and 7.1 kg, respectively, were studied on three different experimental days for a total of six PET measurements. Both NHPs underwent two PET measurements on the same day. The first PET measurement was performed with [^11C]PF06885190, followed by the second PET measurement after pretreatment with either CVL-231 or donepezil. CVL-231 (0.24 mg/kg, IV) was administrated 10 min before the administration of [^11C]PF06885190 via a constant infusion (0.0027 mg/min/kg) throughout the whole PET measurement. Donepezil (0.25 mg/kg) was administrated 30 min before the administration of [^11C]PF06885190. Both NHPs were supplied by the Astrid Fagraeus Laboratory of the Swedish Institute for Infectious Disease Control (SMI), Solna, Sweden. The study was approved by the Animal Ethics Committee of the Swedish Animal Welfare Agency and was performed according to “Guidelines for planning, conducting and documenting experimental research” (Dnr 4820/06-600) of the KI as well as the “Guide for the Care and Use of Laboratory Animals” [26]. Anesthesia was initiated at Astrid Fagraeus Laboratory either by intramuscular injection of ketamine hydrochloride (10 mg/kg) and maintained by the administration of a mixture of isoflurane, oxygen, and medical air through endotracheal intubation, or by intravenous infusion of a mixture of ketamine hydrochloride (4 mg/kg/h) and xylazine hydrochloride (0.4 mg/kg/h). To fix the position of the head of the NHP during the course of whole PET measurement, a prototype device was used. Body temperature was maintained by a Bair Hugger-Model 505 (Arizant Health Care Inc., Eden Prairie, MN 55344, USA) and monitored by an oral thermometer. ECG, heart rate, respiratory rate and oxygen saturation were continuously monitored throughout the experiments and blood pressure was monitored every 15 min.
All the PET measurements in this study were performed by using a High Resolution Research Tomograph (HRRT) (Siemens Molecular Imaging) scanner. The corresponding in-plane resolution with OP-3D-OSEM PSF was 1.5 mm full width at half-maximum (FWHM) at the center of the field of view (FOV) and 2.4 mm at 10 cm off-center directions. List-mode data were acquired continuously for 123 min immediately after intravenous injection of [^11C]PF06885190. Images were reconstructed by the ordinary Poisson-3D-ordered subset expectation maximization (OP-3D-OSEM) algorithm. Prior to each PET acquisition, a 6 min transmission scan was performed, using a single ^137Cs source, for attenuation and scatter correction. Brain magnetic resonance imaging was performed in a 1.5-T GE Signa system (General Electric, Milwaukee, WI, USA). A T1-weighted image was obtained for co-registration with PET and delineation of anatomic brain regions. The T1 sequence was a 3D spoiled gradient-recalled (SPGR) protocol with the following settings: repetition time (TR) 21 ms, flip angle 35°; FOV 12.8; matrix 256 × 256 × 128; 128 × 1.0 mm slices; 2 NEX. The sequence was optimized for trade-off between a minimum of scanning time and a maximum of spatial resolution and contrast between gray and white matter.
For both NHPs, the radioligand [^11C]PF06885190 was administrated with an intravenous (i.v.) injection. The regions of interests (ROIs) were delineated manually on MRI images of each NHP for the whole brain, cerebellum, caudate, putamen, thalamus, frontal cortex, temporal cortex, hippocampus, anterior cingulate cortex, posterior cingulate cortex, parietal cortex, occipital cortex, amygdala, ventral striatum and insula. The summed PET images of the whole duration were co-registered to the MRI image of the individual NHP. After applying the co-registration parameters to the dynamic PET data, the time-activity curves (TACs) of brain regions were generated for each PET measurement. Standardized uptake value (SUV) was calculated for each brain region. […]

[1] = anterior cingulate cortex, baseline
[2] = posterior cingulate cortex, baseline

VT 1-TC Baseline (amygdala, baseline): 2.290 | VT Logan Baseline (amygdala, baseline): 2.549 | VT 1-TC Pretreatment (amygdala): 2.137 | VT Logan Pretreatment (amygdala): 2.304 | VT 1-TC Baseline [1]: 2.245 | VT Logan Baseline [1]: 2.503 | VT 1-TC Pretreatment (anterior cingulate cortex): 2.030 | VT Logan Pretreatment (anterior cingulate cortex): 2.293 | Whole brain uptake at peak (baseline conditions, i.v.): 2.0–4.1 SUV | wash-out: time to drop to half of the peak (brain, baseline): around 10 min | VT 1-TC Baseline (caudate, baseline): 2.388 | VT Logan Baseline (caudate, baseline): 2.683 | VT 1-TC Pretreatment (caudate): 2.357 | VT Logan Pretreatment (caudate): 2.475 | VT 1-TC Baseline (cerebellum, baseline): 2.205 | VT Logan Baseline (cerebellum, baseline): 3.055 | VT 1-TC Pretreatment (cerebellum): 1.875 | VT Logan Pretreatment (cerebellum): 2.401 | VT 1-TC Baseline (frontal cortex, baseline): 2.521 | VT Logan Baseline (frontal cortex, baseline): 2.940 | VT 1-TC Pretreatment (frontal cortex): 2.140 | VT Logan Pretreatment (frontal cortex): 2.394 | VT 1-TC Baseline (hippocampus, baseline): 2.361 | VT Logan Baseline (hippocampus, baseline): 2.595 | VT 1-TC Pretreatment (hippocampus): 2.146 | VT Logan Pretreatment (hippocampus): 2.341 | VT 1-TC Baseline (insula, baseline): 2.617 | VT Logan Baseline (insula, baseline): 2.811 | VT 1-TC Pretreatment (insula): 2.314 | VT Logan Pretreatment (insula): 2.631 | VT 1-TC Baseline (occipital cortex, baseline): 2.871 | VT Logan Baseline (occipital cortex, baseline): 3.534 | VT 1-TC Pretreatment (occipital cortex): 2.462 | VT Logan Pretreatment (occipital cortex): 2.873 | VT 1-TC Baseline (parietal cortex, baseline): 2.515 | VT Logan Baseline (parietal cortex, baseline): 2.709 | VT 1-TC Pretreatment (parietal cortex): 2.109 | VT Logan Pretreatment (parietal cortex): 2.316 | VT 1-TC Baseline [2]: 2.384 | VT Logan Baseline [2]: 2.723 | VT 1-TC Pretreatment (posterior cingulate cortex): 1.963 | VT Logan Pretreatment (posterior cingulate cortex): 2.225 | VT 1-TC Baseline (putamen, baseline): 2.632 | VT Logan Baseline (putamen, baseline): 3.006 | VT 1-TC Pretreatment (putamen): 2.539 | VT Logan Pretreatment (putamen): 2.795 | VT 1-TC Baseline (temporal cortex, baseline): 2.690 | VT Logan Baseline (temporal cortex, baseline): 2.992 | VT 1-TC Pretreatment (temporal cortex): 2.383 | VT Logan Pretreatment (temporal cortex): 2.717 | VT 1-TC Baseline (thalamus, baseline): 2.496 | VT Logan Baseline (thalamus, baseline): 2.778 | VT 1-TC Pretreatment (thalamus): 2.337 | VT Logan Pretreatment (thalamus): 2.367 | VT 1-TC Baseline (ventral striatum, baseline): 2.305 | VT Logan Baseline (ventral striatum, baseline): 2.398 | VT 1-TC Pretreatment (ventral striatum): 2.144 | VT Logan Pretreatment (ventral striatum): 2.324
SMILES: Cc1nc(N[11CH3])c2c(c1C)CN(C(=O)C[C@H]1C[C@@H]1c1ccc(F)nc1)C2 [[^11C]PF06885190]
Change of VT from baseline (after pretreatment with M4 PAM CVL-231): around −10% | VT 1-TC %Decrease (amygdala): 6.7% | VT Logan %Decrease (amygdala): 9.6% | VT 1-TC %Decrease (anterior cingulate cortex): 9.6% | VT Logan %Decrease (anterior cingulate cortex): 8.4% | VT 1-TC %Decrease (average of brain regions): 10.3% | VT Logan %Decrease (average of brain regions): 12% | VT 1-TC %Decrease (caudate): 1.3% | VT Logan %Decrease (caudate): 7.8% | VT 1-TC %Decrease (cerebellum): 15.0% | VT Logan %Decrease (cerebellum): 21.4% | change of VT after administration of donepezil (donepezil 0.25 mg/kg 30 min before radioligand): No significant change | VT 1-TC %Decrease (frontal cortex): 15.1% | VT Logan %Decrease (frontal cortex): 18.6% | VT 1-TC %Decrease (hippocampus): 9.1% | VT Logan %Decrease (hippocampus): 9.8% | VT 1-TC %Decrease (insula): 11.6% | VT Logan %Decrease (insula): 6.4% | VT 1-TC %Decrease (occipital cortex): 14.2% | VT Logan %Decrease (occipital cortex): 18.7% | VT 1-TC %Decrease (parietal cortex): 16.1% | VT Logan %Decrease (parietal cortex): 14.5% | VT 1-TC %Decrease (posterior cingulate cortex): 17.7% | VT Logan %Decrease (posterior cingulate cortex): 18.3% | decrease after pretreatment (pretreatment with specific M4 ligand CVL-231): 10% | VT 1-TC %Decrease (putamen): 3.5% | VT Logan %Decrease (putamen): 7.0% | VT 1-TC %Decrease (temporal cortex): 11.4% | VT Logan %Decrease (temporal cortex): 9.2% | VT 1-TC %Decrease (thalamus): 6.4% | VT Logan %Decrease (thalamus): 14.8% | VT 1-TC %Decrease (ventral striatum): 7.0% | VT Logan %Decrease (ventral striatum): 3.1%
